One data set has as its system MDA-MB-231 cells. As to the kind of experiment: MTT assay, inhibition of proliferation of MDA-MB-231 cells. The data set is classed as cell-based, human. Particulars: MTT reduction, 24 h. The method, then: The synthesized compounds given in Table 1 were tested for their activity in inhibiting the proliferation of MDA-MB-231 cells.
• 1. Cell culture and cell treatment: Breast cancer MDA-MB-231 cells were maintained in monolayers at 37° C. in DMEM containing penicillin and streptomycin, L-glutamine and 10% fetal bovine serum in an atmosphere of 95% air and 5% CO2. Cells were seeded into multi-well plates at 5×10^4 cells/mL; media was replaced 24 h later with fresh serum-free DMEM containing one of the test compounds in DMSO. DMSO was added to control cells at a final concentration of 0.1%. • 2. MTT assay: MDA-MB-231 cells were seeded in 96 well plates (0.2 mL/well), treated with compounds at 0.01, 0.1, 0.5, 1, 5 and 10 μM for 24 h. MTT (25 μL of 2.5 mg/mL solution) was added to each well for 2 h, after which MTT and media were removed. The blue formazan product formed from MTT by live cells was dissolved in DMSO (100 μL/well) and quantified spectrophotometrically at 540 nm in a multilabel counter. IC50s were calculated using GraphPad Prism (Prism 5.01). • 3. Caspase 3 activity: MDA-MB-231 cells were seeded in 96 well plates (0.2 mL/well), and were treated with compounds at 0.1, 0.5 and 1 μM for 24 h. Caspase 3 activity was quantified using the Caspase-Glo 3/7 assay kit according to manufacturer's protocol (Promega). Briefly, after 24 h treatment, fresh serum-free media was added to wells. Cells were equilibrated at room temperature for 30 min, caspase 3/7 substrate in lysis buffer was added and the luminescence was measured. Relative caspase 3/7 activity was calculated as [(luminescence in treatment−luminescence in control)/luminescence in control×100%]. • 4. Annexin V assay: MDA-MB-231 cells were seeded in 6 well plates (3 mL/well), and were treated with compounds at 0.1, 0.5 and 1 μM for 24 h. The apoptotic cells were quantified by Annexin V staining according to the manufacture's protocol (BD Biosciences). Briefly, after 24 h treatment, the media and harvested cells were collected, followed by PBS washes. Cells were stained with Annexin V and PI in binding buffer for 15 min at room temperature and quantified by flow cytometry (BD Biosciences). The apoptotic cells (%) were calculated as [(Annexin V positive cells in treatment−Annexin V positive cells in control)/Annexin V positive cells in control×100%]. • 5. Matrigel assay: MDA-MB-231 cells were trypsinized and resuspended in serum-free DMEM media (3.5×10^6 cells/mL). The cell suspension was mixed 1:1 with Matrigel solution (Bio Scientific). Aliquots (20 μL containing 3.5×10^4 cells) were placed into 6-well tissue-culture dishes to form well-defined droplets and incubated at 37° C. for 5 min to enable semi-solidification. Migration media was freshly made as DMEM containing 20% fetal bovine serum, epidermal growth factor 10 pg/mL, hydrocortisone 0.4 ng/mL, vascular endothelial growth factor (VEGF, 1 pg/mL), basic fibroblast growth factor (bFGF, 20 pg/mL), insulin-like growth factor-1 (40 pg/mL), ascorbic acid (2 ng/mL) and heparin (45 ng/mL). Compounds were added in migration media (3 mL/well) and plates were then incubated for 24 h. Cells that migrated out of droplets were scored using phase-contrast microscopy and digital image analysis (Olympus). • 6. Real-time RT PCR: Cell droplets from migration assays were collected, and total RNA was extracted using Tri Reagent (Astral Scientific) according to the manufacturer's protocol. RNA samples were treated with DNase (Promega) and gene expression was quantified using an Express Onestep Superscript qRT-PCT kit (Invitrogen) and gene-specific primers: heparanase (forward) […] and (reverse) GCAGCAACTTTGGCATTTC, integrin-α3 (forward) […] and (reverse) […], actin (forward) […] and (reverse) […]. The cycling conditions (Roto-Gene™ 6000; Corbett Research) were as follows: 95° C. (15 min); 40 cycles of denaturation (95° C., 30 s); annealing (60° C., 1 min); elongation (72° C., 1 min). […]

Data set [1] deals with MDA-MB-231 breast cancer cell xenografts. In words: In vivo evaluation of compound 15, MDA-MB-231 xenografts in nude mice. To be noted: 10 mg/kg intraperitoneally, 39 days. The method, then: One of the synthesised compounds given in Table 1 (compound 15, reproduced below) was tested for its activity in inhibiting the proliferation of MDA-MB-231 breast cancer cell xenografts in nude mice.
female nu/nu Balb/c mice of 5-6 weeks age at the commencement of the experiment (one week acclimatization after arrival in the animal facility).
two groups of 8 mice each.
MDA-MB-231 cells, 4×10^5 cells/100 μL (Matrigel:phosphate-buffered saline, 1:1) per mouse; subcutaneous injection into the mammary pad.
4 days after cancer cell xenografting compound 15 was administered intraperitoneally at a dose of 10 mg/kg in corn oil (Sigma, containing 2% dimethylsulfoxide). Dosing continued for 6 days per week, for a total of 39 days. Control animals received 2% dimethylsulfoxide in corn oil, 100 μL per 20 g mouse for the same duration.
Body weights were measured daily and tumour sizes every three days (with calipers).

Data set [2] deals with human MDA-MB-231 breast cancer cell xenografts. In words: In vivo dose-response study of compound 29, MDA-MB-231 xenografts in nude mice. Particulars: 38 days. The method, then: One of the synthesised compounds given in Table 1 (compound 29, reproduced below) was the subject of an in vivo dose-response study in nude mice with human MDA-MB-231 breast cancer cell xenografts. One group received compound 15 in parallel.
nu/nu Balb/c; Age: 6 weeks at commencement of study; Gender: female
control, compound 29 (2.5 mg/kg), compound 29 (10 mg/kg), compound 29 (40 mg/kg) and compound 15 (10 mg/kg); 5 mice/group
human MDA-MB-231 cells, 4×10^5 cells/100 μl (Matrigel:PBS 1:1)/mouse, subcutaneous injection into the 4th mammary fat pad.
after 4 days animals received compound 29 at 40, 10 and 2.5 mg/kg doses (in corn oil, Sigma, and 8% DMSO), or compound 15 at 10 mg/kg in corn oil at 4% DMSO, 6 days each week, for 38 days. Control: 8% DMSO in corn oil.
weighed six days a week; tumour sizes measured with calipers every 3 to 4 days.

Take `O=C(O)CCCCCCCCCCCCCCCNC(=O)Nc1ccc(Cl)cc1` [Compound 14, 16-{[(4-chlorophenyl)carbamoyl]amino}hexadecanoic acid]: 810 nM corresponded to half-maximal inhibition with MDA-MB-231 cells (Homo sapiens) (IC50).
Same read-out and setting: the same measure for `CCOC(=O)CCCCCCCCCCCCCCCNC(=O)NC(C)(C)C` [Compound 4, Ethyl 16-[(tert-butylcarbamoyl)amino]hexadecanoate]: 6920 ± 310 nM; for `CC(C)(C)NC(=O)NCCCCCCCCCCCCCCCC(=O)O` [Compound 7, 16-[(tert-butylcarbamoyl)amino]hexadecanoic acid]: 1220 ± 80 nM.
In the case of `CCOC(=O)CCCCCCCCCCCCCCCNC(=O)Nc1ccc(Cl)cc1` [Compound 13, Ethyl 16-{[(4-chlorophenyl)carbamoyl]amino}hexadecanoate], inhibition in the data set on MDA-MB-231 cells (Homo sapiens) was half-maximal at 80 ± 10 nM (IC50).
Regarding `CCNC(=O)NCCCCCCCCCCCCCCCC(=O)OCC` [Compound 20, Ethyl 16-[(ethylcarbamoyl)amino]hexadecanoate], the IC50 (commonly the concentration needed to halve the response being measured) in the data set with MDA-MB-231 cells (Homo sapiens) amounted to 660 ± 30 nM.
For the compound `CCOC(=O)CCCCCCCCCCCCCCCNC(=O)NCCc1ccccc1` [Compound 2, Ethyl 16-{[(2-phenylethyl)carbamoyl]amino}hexadecanoate], in the data set with MDA-MB-231 cells (Homo sapiens), the IC50 came to 1110 ± 260 nM.
With `O=C(O)CCCCCCCCCCCCCCCNC(=O)NC1CCCCC1` [Compound 5, 16-[(cyclohexylcarbamoyl)amino]hexadecanoic acid], half-maximal inhibition with MDA-MB-231 cells (Homo sapiens) (IC50) was put at 2780 ± 190 nM.
For the compound `CCOC(=O)CCCCCCCCCCCCCCCNC(=O)Nc1ccc(C)cc1` [Compound 15, Ethyl 16-{[(4-methylphenyl)carbamoyl]amino}hexadecanoate], in the data set on MDA-MB-231 cells (Homo sapiens), the midpoint of inhibition, the IC50, lay at 20 nM. The dose limiting toxicity entry in data set [1] (6 days per week) was “no dose limiting toxicity”. In data set [1] (6 days per week, FIG. 4), the “mouse body weight loss” value is listed as “greater with compound 15 than control”. The tumour metastasis result in data set [1] was “appears to suppress tumour metastasis”. Besides, in data set [1] (FIG. 5), the “primary tumour growth (growth rate and volume)” value is on record as “did not prevent primary tumour growth”. Moreover, in data set [1] (controls 7/8), the “mice with white small foci in the abdominal cavity” value is recorded as 1/8. The “toxicity of the treatment (growth rates)” value in data set [2] (all dose groups) is recorded as “non-toxic”. Further, the “mouse body weight gain or loss” value in data set [2] (compound 15 10 mg/kg IP, FIG. 8) is “lost weight at the early stage of IP injections”.
For the compound `CCOC(=O)CCCCCCCCCCCCCCCNC(=O)Nc1ccccc1` [Compound 9, Ethyl 16-[(phenylcarbamoyl)amino]hexadecanoate], it took 1590 ± 280 nM to reach half-maximal inhibition in the data set with MDA-MB-231 cells (Homo sapiens) (IC50).
In the data set with MDA-MB-231 cells (Homo sapiens), `O=C(O)CCCCCCCCCCCCCCCNC(=O)NCc1ccccc1` [Compound 8, 16-[(benzylcarbamoyl)amino]hexadecanoic acid] displayed an IC50 of 720 ± 10 nM.
Same read-out and setting: the same measure for `CCOC(=O)CCCCCCCCCCCCCCCNC(=O)NC1CCCCC1` [Compound 1]: 850 ± 20 nM; for `O=C(O)CCCCCCCCCCCCCCCNC(=O)Nc1ccccc1` [Compound 6, 16-[(phenylcarbamoyl)amino]hexadecanoic acid]: 1200 nM.
Turning to `O=C(O)CCCCCCCCCCCCCCCNC(=O)Nc1ccc(F)cc1` [Compound 12, 16-{[(4-fluorophenyl)carbamoyl]amino}hexadecanoic acid], the IC50 in the data set with MDA-MB-231 cells (Homo sapiens) came out at 1000 nM.
Compound `CCOC(=O)CCCCCCCCCCCCCCCNC(=O)NCc1ccccc1` [Compound 10, Ethyl 16[(benzylcarbamoyl)amino]hexadecanoate] showed an IC50 in the data set on MDA-MB-231 cells (Homo sapiens) of 870 ± 80 nM.
“16-{[(4-methoxyphenyl)carbamoyl]amino}hexadecanoic acid [Compound 24]” yielded an IC50 in the data set with MDA-MB-231 cells of 1300 nM.
Compound `CCOC(=O)CCCCCCCCCCCCCCCNC(=O)NC12CC3CC(CC(C3)C1)C2` [Compound 17, Ethyl 16-[(tricyclo[3.3.1.1^3,7]dec-1-ylcarbamoyl)amino]hexadecanoate] returned an IC50 in the data set with MDA-MB-231 cells (Homo sapiens) of 2750 ± 270 nM.
Same read-out and setting: to `O=C(O)CCCCCCCCCCCCCCCNC(=O)Nc1ccc(Cl)c(Cl)c1` [Compound 28, 16-{[(3,4-dichlorophenyl)carbamoyl]amino}hexadecanoic acid] belongs 1200 nM; to `O=C(O)CCCCCCCCCCCCCCCNC(=O)NCCc1ccccc1` [Compound 3, 16-{[(2-phenylethyl)carbamoyl]amino}hexadecanoic acid], 1500 ± 80 nM; to `CCOC(=O)CCCCCCCCCCCCCCCNC(=O)Nc1ccc(F)cc1` [Compound 11, Ethyl 16-{[(4-fluorophenyl)carbamoyl]amino}hexadecanoate], 760 ± 70 nM.
Same read-out and setting: to `O=C(O)CCCCCCCCCCCCCCCNC(=O)Nc1ccc(I)cc1` [Compound 26, 16-{[(4-iodophenyl)carbamoyl]amino}hexadecanoic acid] belongs 1000 nM.
